Legend:
Type in all cases: biochemical
PKR R510Q = PKR R510Q (Homo sapiens, UniProt P30613, R510Q); assay: PKR Mutant Assay, AC50 against PKR R510Q; conditions: mutant PKR R510Q enzyme
Experimental: (§1) • PKR or PKR mutant enzyme solution was diluted in assay buffer. • 2 μL of test compound was added into wells first, and then 180 μL reaction mix was added. • Reactions mixture with test compound was assembled except for ADP, and plates were stored for 60 minutes at room temperature. • 20 uL ADP was added to start reaction at room temperature and reaction progress was measured as changes in absorbance at 340 nm wavelength at room temperature.
(§2) Test Compound Preparation: • Test compound stock was made at 100× concentration in 100% DMSO (10 mM) • 1 to 3 dilutions were made for 11 points (i.e. 50 μl of first concentration added to 100 μl 100% DMSO to yield 3.33 mM, 50 μl of this added to 100 μl DMSO to yield 1.11 mM, and so forth) • 1 to 100 dilution into assay (2 μl in 200 μl) yielded starting concentration of 100 μM, decreasing 3 fold for 11 points. Assay Buffer: 100 mM KCl, 50 mM Tris 7.5, 5 mM MgCl2, 1 mM DTT, 0.03% BSA Reaction Mixture: PKR mutant enzyme: 80-400 ng/well; ADP: 0.22-1.65 mM; PEP: 0.1-0.5 mM; NADH: 180 uM; LDH: 0.5 units (Sigma#59023); DTT: 1 mM; BSA: 0.03%.

PKR R532W = PKR R532W (Homo sapiens, UniProt P30613, R532W); assay: PKR Mutant Assay, AC50 against PKR R532W; conditions: mutant PKR R532W enzyme
Experimental: as §1, §2

PKR WT = PKR WT (Homo sapiens, UniProt P30613); assay: PKR WT enzymatic AC50 assay; conditions: wild type PKR
Experimental: as §1, §2

PKR R510Q, sequence (P30613 whole entry R510Q): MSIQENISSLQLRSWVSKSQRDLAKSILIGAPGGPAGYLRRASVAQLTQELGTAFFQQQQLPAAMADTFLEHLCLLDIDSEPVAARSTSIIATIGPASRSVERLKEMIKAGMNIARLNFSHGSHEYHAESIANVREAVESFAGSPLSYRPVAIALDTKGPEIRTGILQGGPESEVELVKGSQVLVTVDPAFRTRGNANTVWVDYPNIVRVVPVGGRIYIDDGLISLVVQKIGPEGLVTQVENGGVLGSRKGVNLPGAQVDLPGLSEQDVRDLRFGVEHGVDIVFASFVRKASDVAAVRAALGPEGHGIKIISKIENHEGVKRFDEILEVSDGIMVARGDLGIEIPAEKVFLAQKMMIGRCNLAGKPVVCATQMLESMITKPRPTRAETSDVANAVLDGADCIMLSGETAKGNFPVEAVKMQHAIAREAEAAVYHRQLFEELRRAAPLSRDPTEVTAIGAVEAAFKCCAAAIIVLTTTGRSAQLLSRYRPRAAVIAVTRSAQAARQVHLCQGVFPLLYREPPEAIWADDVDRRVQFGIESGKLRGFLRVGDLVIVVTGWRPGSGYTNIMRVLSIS
PKR R532W, sequence (P30613 whole entry R532W): as the sequence (P30613 whole entry R510Q) above, with Q510R, R532W counted along it
PKR WT, sequence (P30613 whole entry): as the sequence (P30613 whole entry R510Q) above, with Q510R counted along it

| SMILES | AC50 (PKR R510Q) | AC50 (PKR R532W) | AC50 (PKR WT) |
| --- | --- | --- | --- |
| O=C(c1ccc(NS(=O)(=O)c2cccc3cccnc23)cc1)N1CCC(CO)(c2ccccc2)CC1 [Compound 238] | 1010 to 10000 nM | 101 to 1000 nM | 101 to 1000 nM |
| CC(C)CC1(O)CCN(C(=O)c2ccc(NS(=O)(=O)c3ccnc4scnc34)cc2)CC1 [Compound 314] | > 10000 nM | > 10000 nM | 1010 to 10000 nM |
| O=C(c1ccc(NS(=O)(=O)c2cccc3cccnc23)cc1)N1CCC(O)(c2cccc3c2OCCO3)CC1 [Compound 284] | 1010 to 10000 nM | 101 to 1000 nM | 101 to 1000 nM |
| O=C(c1ccc(NS(=O)(=O)c2ccc(F)c3nccnc23)cc1)N1CCC(O)(c2ccccc2Cl)CC1 [Compound 234, N-(4-(4-(2-chlorophenyl)-4-hydroxypiperidine-1-carbonyl)phenyl)-8-fluoroquinoxaline-5-sulfonamide] | 101 to 1000 nM | 101 to 1000 nM | 101 to 1000 nM |
| O=C(c1ccc(NS(=O)(=O)c2cccc3nccnc23)cc1)N1CCC(O)(CC2CC2)CC1 [Compound 188, N-(4-(4-(cyclopropylmethyl)-4-hydroxypiperidine-1-carbonyl)phenyl)quinoxaline-5-sulfonamide] | 101 to 1000 nM | < 100 nM | < 100 nM |
| CC(C)CC1(O)CCN(C(=O)c2ccc(NS(=O)(=O)c3ccc(F)c4scnc34)cc2)CC1 [Compound 372] | 101 to 1000 nM | 101 to 1000 nM | 101 to 1000 nM |
| CCC1(O)CCN(C(=O)c2ccc(NS(=O)(=O)c3cccc4cccnc34)cc2)CC1 [Compound 267] | 1010 to 10000 nM | 101 to 1000 nM | 101 to 1000 nM |
| O=C(c1ccc(NS(=O)(=O)Cc2ccccn2)cc1)N1CCC(O)(c2ccccc2Cl)CC1 [Compound 322] | > 10000 nM | > 10000 nM | > 10000 nM |
| O=C(c1ccc(NS(=O)(=O)c2ccc(Cl)cc2)cc1)N1CCC(O)(Cc2ccccc2)CC1 [Compound 299] | – | – | 1010 to 10000 nM |
| O=C(c1ccc(NS(=O)(=O)c2cccc(Cl)c2)cc1)N1CCC(O)(Cc2ccccc2)CC1 [Compound 281] | – | 101 to 1000 nM | 101 to 1000 nM |
| O=C(c1ccc(NS(=O)(=O)c2cccc3c2OC(F)(F)O3)cc1)N1CCC(O)(c2ccccc2Cl)CC1 [Compound 308] | > 10000 nM | 1010 to 10000 nM | 1010 to 10000 nM |
| O=C(c1ccc(NS(=O)(=O)c2ccc(F)c3cccnc23)c(F)c1)N1CCC(O)(c2cccc(F)c2F)CC1 [Compound 277] | 1010 to 10000 nM | 101 to 1000 nM | 101 to 1000 nM |
| O=C(c1ccc(NS(=O)(=O)c2cccc3cccnc23)cc1)N1CCC(O)(c2ccnc(F)c2)CC1 [Compound 247, N-[4-[4-(2-fluoropyridin-4-yl)-4-hydroxy-piperidine-1-carbonyl]phenyl]quinoline-8-sulfonamide] | 1010 to 10000 nM | 101 to 1000 nM | 101 to 1000 nM |
| Cc1cccc(C2(O)CCN(C(=O)c3ccc(NS(=O)(=O)c4cccc5cccnc45)cc3)CC2)n1 [Compound 265, N-[4-[4-hydroxy-4-(6-methylpyridin-2-yl)piperidine-1-carbonyl]phenyl]quinoline-8-sulfonamide] | 1010 to 10000 nM | 101 to 1000 nM | 101 to 1000 nM |
| O=C(c1ccc(NS(=O)(=O)c2ccc3c(c2)OCO3)cc1)N1CCC(O)(Cc2ccccc2)CC1 [Compound 288] | – | 1010 to 10000 nM | 101 to 1000 nM |
| CC(F)(F)CCC1(O)CCN(C(=O)c2ccc(NS(=O)(=O)c3cccc4scnc34)cc2)CC1 [Compound 440] | 101 to 1000 nM | 101 to 1000 nM | – |
| O=C(c1ccc(NS(=O)(=O)c2cccc3cccnc23)cc1)N1CCC(O)(/C=C/C(F)F)CC1 [Compound 200] | 101 to 1000 nM | 101 to 1000 nM | < 100 nM |
| O=C(c1ccc(NS(=O)(=O)c2c[nH]c3cccnc23)cc1)N1CCC(O)(c2ccccc2Cl)CC1 [Compound 316] | > 10000 nM | > 10000 nM | > 10000 nM |
| CC1(CC2(O)CCN(C(=O)c3ccc(NS(=O)(=O)c4cccc5scnc45)cc3)CC2)CC1 [Compound 132, N-(4-(4-hydroxy-4-((1-methylcyclopropyl)methyl)piperidine-1-carbonyl)phenyl)benzo[d]thiazole-4-sulfonamide] | < 100 nM | < 100 nM | < 100 nM |
| N#Cc1ccccc1C1(O)CCN(C(=O)c2ccc(NS(=O)(=O)c3cccc4cccnc34)cc2)CC1 [Compound 266, N-(4-(4-(2-cyanophenyl)-4-hydroxypiperidine-1-carbonyl)phenyl)quinoline-8-sulfonamide] | 1010 to 10000 nM | 101 to 1000 nM | 101 to 1000 nM |
| O=C(c1ccc(NS(=O)(=O)c2cccc3ocnc23)cc1)N1CCC(O)(c2ccccc2Cl)CC1 [Compound 381, N-(4-(4-(2-chlorophenyl)-4-hydroxypiperidine-1-carbonyl)phenyl)benzo[d]oxazole-4-sulfonamide] | 101 to 1000 nM | 101 to 1000 nM | < 100 nM |
| O=C(c1ccc(NS(=O)(=O)c2cccc3cccnc23)cc1)N1CCC(O)(CN2CCCC2)CC1 [Compound 327] | – | 1010 to 10000 nM | – |

| SMILES | AC50 (PKR R510Q) | AC50 (PKR R532W) | AC50 (PKR WT) |
| --- | --- | --- | --- |
| N#Cc1cccc(C2(O)CCN(C(=O)c3ccc(NS(=O)(=O)c4cccc5cccnc45)cc3)CC2)c1 [Compound 278] | 1010 to 10000 nM | 101 to 1000 nM | 101 to 1000 nM |
| O=C(c1cc(F)c(NS(=O)(=O)c2cccc3cccnc23)cc1F)N1CCC(O)(c2ccccc2)CC1 [Compound 290] | 1010 to 10000 nM | 101 to 1000 nM | 101 to 1000 nM |
| O=C(c1ccc(NS(=O)(=O)c2cccc3cccnc23)cc1)N1CCC(O)(CCO)CC1 [Compound 274] | 1010 to 10000 nM | 101 to 1000 nM | 101 to 1000 nM |
| CC(C)(O)CCC1(O)CCN(C(=O)c2ccc(NS(=O)(=O)c3cccc4cccnc34)cc2)CC1 [Compound 292] | 1010 to 10000 nM | 1010 to 10000 nM | 101 to 1000 nM |
| O=C(c1ccc(NS(=O)(=O)c2ccc(C(F)(F)F)cc2)cc1)N1CCC(O)(Cc2ccccc2)CC1 [Compound 321] | – | > 10000 nM | > 10000 nM |
| CC(C)CC1(O)CCN(C(=O)c2ccc(NS(=O)(=O)c3cccc4cncnc34)cc2)CC1 [Compound 441] | 1010 to 10000 nM | 101 to 1000 nM | – |
| Cc1nc2c(S(=O)(=O)Nc3ccc(C(=O)N4CCC(O)(CC(C)C)CC4)cc3)cccc2o1 [Compound 384, N-(4-(4-hydroxy-4-isobutylpiperidine-1-carbonyl)phenyl)-2-methylbenzo[d]oxazole-4-sulfonamide] | 101 to 1000 nM | 101 to 1000 nM | 101 to 1000 nM |
| CC(F)(F)CC1(O)CCN(C(=O)c2ccc(NS(=O)(=O)c3cccc4scnc34)cc2)CC1 [Compound 413] | 101 to 1000 nM | 101 to 1000 nM | 101 to 1000 nM |
| O=C(c1ccc(NS(=O)(=O)c2ccc(F)c3cccnc23)cc1)N1CCC(O)(Cc2ccccc2C(F)(F)F)CC1 [Compound 208, 5-fluoro-N-(4-(4-hydroxy-4-(2-(trifluoromethyl)benzyl)piperidine-1-carbonyl)phenyl)quinoline-8-sulfonamide] | 101 to 1000 nM | < 100 nM | < 100 nM |
| COc1cccnc1C1(O)CCN(C(=O)c2ccc(NS(=O)(=O)c3cccc4cccnc34)cc2)CC1 [Compound 285] | > 10000 nM | 101 to 1000 nM | 101 to 1000 nM |
| CC(C)CC1(O)CCN(C(=O)c2ccc(NS(=O)(=O)c3cccc4snnc34)cc2)CC1 [Compound 419] | – | > 10000 nM | > 10000 nM |
| CCOCC1(O)CCN(C(=O)c2ccc(NS(=O)(=O)c3cccc4cccnc34)cc2)CC1 [Compound 246, N-(4-(4-(ethoxymethyl)-4-hydroxypiperidine-1-carbonyl)phenyl)quinoline-8-sulfonamide] | 1010 to 10000 nM | < 100 nM | 101 to 1000 nM |
| CC(C)CC1(O)CCN(C(=O)c2ccc(NS(=O)(=O)c3cnc(O)c4cccnc34)cc2)CC1 [Compound 416] | – | > 10000 nM | 1010 to 10000 nM |
| O=C(c1ccc(NS(=O)(=O)c2cccnc2)cc1)N1CCC(O)(Cc2ccccc2)CC1 [Compound 315] | – | > 10000 nM | 1010 to 10000 nM |
| O=C(c1ccc(NS(=O)(=O)c2cccc3nonc23)cc1)N1CCC(O)(Cc2ccccc2)CC1 [Compound 310] | – | 1010 to 10000 nM | 1010 to 10000 nM |
| O=C(c1ncc(NS(=O)(=O)c2cccc3cccnc23)cn1)N1CCC(O)(c2ccccc2)CC1 [Compound 323] | – | – | > 10000 nM |
| CCOC(=O)C1(Cc2ccccc2)CCN(C(=O)c2ccc(NS(=O)(=O)c3cccc4cccnc34)cc2)CC1 [Compound 330] | 1010 to 10000 nM | 101 to 1000 nM | – |
| CN(C)CC1(O)CCN(C(=O)c2ccc(NS(=O)(=O)c3cccc4cccnc34)cc2)CC1 [Compound 301] | – | 1010 to 10000 nM | 1010 to 10000 nM |
| N#Cc1cccc(S(=O)(=O)Nc2ccc(C(=O)N3CCC(O)(Cc4ccccc4)CC3)cc2)c1 [Compound 317] | – | – | > 10000 nM |
| O=C(c1ccc(NS(=O)(=O)c2cccc3cnccc23)cc1)N1CCC(O)(c2ccccc2)CC1 [Compound 319] | – | > 10000 nM | > 10000 nM |
| O=C(c1ccc(NS(=O)(=O)c2cccc(C(F)(F)F)c2)cc1)N1CCC(O)(Cc2ccccc2)CC1 [Compound 287] | – | 1010 to 10000 nM | 101 to 1000 nM |
